Here are results for one molecule from patent EP0977560B1 (PAZ Arzneimittel- Entwicklungsgesellschaft mbH, priority 1997, dated 1998).

The structures appear in SMILES notation.

Assay [1] relates to Transkriptionsfaktors NF-κB. The assay is described as follows: Electro mobility shift assay (DIG Gel Shift Kit) of NF-κB activation in TPA-stimulated Jurkat cells. Format: cell-based. The settings on record: Phorbolester (TPA) stimulated Jurkat-Zellen; two-hour preincubation; 100, 10 and 1 ptm (Spur 3-5); Abbildung 1. The source says:
Einfluß von R-Ibuprofen-CoA-Thioester auf die Aktivierung des Transkriptionsfaktors NF-κB in Jurkat-Zellen. […] Spur 1 zeigt die unstimulierten, Spur 2 die stimulierten Kontrollzellen.
(In general: A gel shift assay detects complexes by their altered migration in electrophoresis.)

Assay [2] deals with PGHS-2 (Cyclooxygenase-2). In words: Formation of PGHS-2 in LPS-induced monocytes (method after Brideau et al., human whole blood assay). The class given is cell-based. The following applies: LPS-induced Monozyten, 24 Std.; R-Ibuprofenoyl-CoA 0.5, 0.25, 0.05 mM; Ibuprofen, razemisch 1.0, 0.1, 0.05 mM; Abbildung 2. The source says:
Inkubation von LPS-induzierten Monozyten (24 Std.). […] Methode nach: BRIDEAU, C., KARGMAN, S., LIU, S., DALLOB, A.L., EHRICH, E.W., RODGER, I.W. & CHAN, C.C. […] A human whole blood assay for clinical evaluation of biochemical efficacy of cyclooxygenase inhibitors. Inflamm. Res., 45, 68-74.

With `CC(C)Cc1ccc([C@@H](C)C(=O)SCCNC(=O)CCNC(=O)[C@H](O)C(C)(C)COP(=O)(O)OP(=O)(O)OC[C@H]2O[C@@H](n3cnc4c(N)ncnc43)[C@H](O)[C@@H]2OP(=O)(O)O)cc1` [R-Ibuprofen-CoA-Thioester], the “Aktivierung des Transkriptionsfaktors NF-κB” value in assay [1] is on record as “Aktivierungshemmung von NF-κB”. Further, in assay [2], the “Bildung von PGHS-2 (Cyclooxygenase-2)” value was “dosisabhängig zu einer Unterdrückung der Bildung von PGHS-2”.
